Reference: patent US7195901B1 (priority 2004, dated 2007)

System: yeast endogenous DGAT
Type: biochemical, S. cerevisiae
Conditions: 1 mM diricinolein; yeast grown under repression (2% glucose) condition

## 1,2-diricinolein
  absolute incorporation of 14C-oleate into RRO: less than 20 pmol/mg/min
